Experiment [1] deals with Methicillin Resistant Staphylococcus aureus strain USA 200. Put plainly: Minimum inhibitory concentration (MIC), CLSI broth micro-dilution, S. aureus. The class given is cell-based. The settings on record: Staphylococcus aureus, MRSA / USA200; Table 6; MRSA USA 200; cation adjusted Mueller Hinton Broth + 0.002% Tween-80; 35° C., 22 hours. The gist of the method: (§1)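 Antibacterial potency is measured as MIC by the CLSI broth dilution method. Bacteria at OD600 0.0005 in Tween-80-supplemented cation-adjusted Mueller Hinton broth face ten twofold compound dilutions for 22 h at 35° C.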
For orientation: In broth dilution the organism is exposed to a series of concentrations in liquid medium.

Experiment [2] relates to Escherichia coli ATCC 25922. The experiment in a line: Minimum inhibitory concentration (MIC), CLSI broth micro-dilution, E. coli. The settings on record: Escherichia coli, ATCC25922, 22 h, Table 6, cation adjusted Mueller Hinton Broth + 0.002% Tween-80, 35° C. The class given is cell-based. The gist of the method:
as §1

The term MIC denotes the least concentration at which growth counts as inhibited. Turning to `C[C@@H]1NC(=O)[C@@H](N(C)C(=O)[C@H](CCN)NC(=O)c2ccc(-c3ccc(C(C)(C)C)cc3)cc2N)c2ccc(OCCN)c(c2)-c2cc(ccc2OCCN)C[C@@H](C(=O)NCC#N)NC1=O` (racemic) [Compound 372, rac-(8S,11S,14S)-3,18-bis(2-aminoethoxy)-N-(cyanomethyl)-11-methyl-14-[methyl-[rac-(2S)-4-amino-2-[[2-amino-4-(4-tert-butylphenyl)benzoyl]amino]butanoyl]amino]-10,13-dioxo-9,12-diazatricyclo[13.3.1.12,6]icosa-1(18),2(20),3,5,15(19),16-hexaene-8-carboxamide], the figures for the MIC in experiment [1] and in experiment [2] were 0.023 µM and 0.38 µM, respectively.
`Cc1cc(Oc2ccc(C(C)(C)C)cc2)cc(C)c1C(=O)N[C@@H](CCN)C(=O)N(C)[C@@H]1C(=O)N[C@@H](C)C(=O)N[C@H](C(=O)NCC#N)Cc2ccc(OCCN)c(c2)-c2cc1ccc2OCCN` (racemic) [Compound 375, rac-(8S,11S,14S)-3,18-bis(2-aminoethoxy)-N-(cyanomethyl)-11-methyl-14-[methyl-[rac-(2S)-4-amino-2-[[4-(4-tert-butylphenoxy)-2,6-dimethyl-benzoyl]amino]butanoyl]amino]-10,13-dioxo-9,12-diazatricyclo[13.3.1.12,6]icosa-1(18),2(20),3,5,15(19),16-hexaene-8-carboxamide]: the results for the MIC in experiment [1] and in experiment [2] were 0.031 µM and 0.5 µM, respectively.
Turning to `C[C@@H]1NC(=O)[C@@H](N(C)C(=O)[C@H](CCN)NC(=O)c2ccc(Oc3ccc(C(C)(C)C)cc3)cc2Cl)c2ccc(OCCN)c(c2)-c2cc(ccc2OCCN)C[C@@H](C(=O)NCC#N)NC1=O` (racemic) [Compound 376, rac-(8S,11S,14S)-3,18-bis(2-aminoethoxy)-N-(cyanomethyl)-11-methyl-14-[methyl-[rac-(2S)-4-amino-2-[[4-(4-tert-butylphenoxy)-2-chloro-benzoyl]amino]butanoyl]amino]-10,13-dioxo-9,12-diazatricyclo[13.3.1.12,6]icosa-1(18),2(20),3,5,15(19),16-hexaene-8-carboxamide], the minimal inhibitory concentration (MIC) in experiment [1] stood at 0.016 µM; in experiment [2] it was 0.25 µM.
Take `CCCCc1ccc(Oc2ccc(C(=O)N[C@@H](CCN)C(=O)N(C)[C@@H]3C(=O)N[C@@H](C)C(=O)N[C@H](C(=O)NCC#N)Cc4ccc(OCCN)c(c4)-c4cc3ccc4OCCN)c(Cl)c2)cc1` (racemic) [Compound 377, rac-(8S,11S,14S)-3,18-bis(2-aminoethoxy)-N-(cyanomethyl)-11-methyl-14-[methyl-[rac-(2S)-4-amino-2-[[4-(4-butylphenoxy)-2-chloro-benzoyl]amino]butanoyl]amino]-10,13-dioxo-9,12-diazatricyclo[13.3.1.12,6]icosa-1(18),2(20),3,5,15(19),16-hexaene-8-carboxamide]: the values for the MIC in experiment [1] and in experiment [2] were 0.031 µM and 0.5 µM, respectively.
On the same counts, the results for `CCCCc1ccc(Oc2ccc(C(=O)N[C@@H](CCN)C(=O)N(C)[C@@H]3C(=O)N[C@@H](C)C(=O)N[C@H](C(=O)NCC#N)Cc4ccc(OCCN)c(c4)-c4cc3ccc4OCCN)c(Cl)c2)cc1CCCC` (racemic) [Compound 378, rac-(8S,11S,14S)-3,18-bis(2-aminoethoxy)-N-(cyanomethyl)-11-methyl-14-[methyl-[rac-(2S)-4-amino-2-[[2-chloro-4-(3,4-dibutylphenoxy)benzoyl]amino]butanoyl]amino]-10,13-dioxo-9,12-diazatricyclo[13.3.1.12,6]icosa-1(18),2(20),3,5,15(19),16-hexaene-8-carboxamide] are 0.031 µM and 0.38 µM.
On the same counts, the results for `CCCCCCCc1ccc(C(=O)N[C@@H](CCN)C(=O)N(C)[C@@H]2C(=O)N[C@@H](C)C(=O)N[C@H](C(=O)NCC#N)Cc3ccc(OCCN)c(c3)-c3cc2ccc3OCCN)c(OCC(=O)O)c1` (racemic) [Compound 379, 2-[5-heptyl-2-[[rac-(1S)-3-amino-1-[methyl-[rac-(7S,10S,13S)-3,18-bis(2-aminoethoxy)-13-(cyanomethylcarbamoyl)-10-methyl-8,11-dioxo-9,12-diazatricyclo[13.3.1.12,6]icosa-1(19),2,4,6(20),15,17-hexaen-7-yl]carbamoyl]propyl]carbamoyl]phenoxy]acetic acid] are 0.26 µM and 1 µM.
On the same counts, the results for `CCCCCCOc1ccc(-c2cc(-c3ccc(C(=O)N[C@@H](CCN)C(=O)N(C)[C@@H]4C(=O)N[C@@H](C)C(=O)N[C@H](C(=O)NCC#N)Cc5ccc(OCCN)c(c5)-c5cc4ccc5OCCN)cc3)no2)cc1` (racemic) [Compound 380, rac-(8S,11S,14S)-3,18-bis(2-aminoethoxy)-N-(cyanomethyl)-11-methyl-14-[methyl-[rac-(2S)-4-amino-2-[[4-[5-(4-hexoxyphenyl)isoxazol-3-yl]benzoyl]amino]butanoyl]amino]-10,13-dioxo-9,12-diazatricyclo[13.3.1.12,6]icosa-1(18),2(20),3,5,15(19),16-hexaene-8-carboxamide] are 0.045 µM and 0.48 µM.
`CCCCCc1ccc(-c2nc(C)c(C(=O)N[C@@H](CCN)C(=O)N(C)[C@@H]3C(=O)N[C@@H](C)C(=O)N[C@H](C(=O)NCC#N)Cc4ccc(OCCN)c(c4)-c4cc3ccc4OCCN)o2)cc1` (racemic) [Compound 381, 4-methyl-2-(4-pentylphenyl)-N-[rac-(1S)-3-amino-1-[methyl-[rac-(7S,10S,13S)-3,18-bis(2-aminoethoxy)-13-(cyanomethylcarbamoyl)-10-methyl-8,11-dioxo-9,12-diazatricyclo[13.3.1.12,6]icosa-1(19),2,4,6(20),15,17-hexaen-7-yl]carbamoyl]propyl]oxazole-5-carboxamide]: the minimum inhibitory concentration (MIC) was 0.067 µM in experiment [1] and 4.3 µM in experiment [2].
Take `CCCCCc1ccc(-c2nc(C)c(C(=O)N[C@H](CCN)C(=O)N(C)[C@@H]3C(=O)N[C@@H](C)C(=O)N[C@H](C(=O)NCC#N)Cc4ccc(OCCN)c(c4)-c4cc3ccc4OCCN)o2)cc1` (racemic) [Compound 382, 4-methyl-2-(4-pentylphenyl)-N-[rac-(1R)-3-amino-1-[methyl-[rac-(7S,10S,13S)-3,18-bis(2-aminoethoxy)-13-(cyanomethylcarbamoyl)-10-methyl-8,11-dioxo-9,12-diazatricyclo[13.3.1.12,6]icosa-1(19),2,4,6(20),15,17-hexaen-7-yl]carbamoyl]propyl]oxazole-5-carboxamide]: the MIC in experiment [1] is 0.4 µM; in experiment [2], 4.3 µM.
On the same counts, the results for `C[C@@H]1NC(=O)[C@@H](N(C)C(=O)[C@H](CCN)NC(=O)c2ccn(-c3ccc(C(C)(C)C)cc3)c(=O)c2)c2ccc(OCCN)c(c2)-c2cc(ccc2OCCN)C[C@@H](C(=O)NCC#N)NC1=O` (racemic) [Compound 383, rac-(8S,11S,14S)-3,18-bis(2-aminoethoxy)-N-(cyanomethyl)-11-methyl-14-[methyl-[rac-(2S)-4-amino-2-[[1-(4-tert-butylphenyl)-2-oxo-pyridine-4-carbonyl]amino]butanoyl]amino]-10,13-dioxo-9,12-diazatricyclo[13.3.1.12,6]icosa-1(18),2(20),3,5,15(19),16-hexaene-8-carboxamide] are 0.1 µM and 1.1 µM.
In the same order, the values of `C[C@@H]1NC(=O)[C@@H](N(C)C(=O)[C@H](CCN)NC(=O)c2cnn(-c3ccc(C(C)(C)C)cc3)c(=O)c2)c2ccc(OCCN)c(c2)-c2cc(ccc2OCCN)C[C@@H](C(=O)NCC#N)NC1=O` (racemic) [Compound 384, rac-(8S,11S,14S)-3,18-bis(2-aminoethoxy)-N-(cyanomethyl)-11-methyl-14-[methyl-[rac-(2S)-4-amino-2-[[1-(4-tert-butylphenyl)-6-oxo-pyridazine-4-carbonyl]amino]butanoyl]amino]-10,13-dioxo-9,12-diazatricyclo[13.3.1.12,6]icosa-1(18),2(20),3,5,15(19),16-hexaene-8-carboxamide] are 0.033 µM and 0.4 µM.
In the same order, the values of `Cc1nc(-c2ccc(C(C)(C)C)cc2)nnc1C(=O)N[C@@H](CCN)C(=O)N(C)[C@@H]1C(=O)N[C@@H](C)C(=O)N[C@H](C(=O)NCC#N)Cc2ccc(OCCN)c(c2)-c2cc1ccc2OCCN` (racemic) [Compound 385, rac-(8S,11S,14S)-3,18-bis(2-aminoethoxy)-N-(cyanomethyl)-11-methyl-14-[methyl-[rac-(2S)-4-amino-2-[[3-(4-tert-butylphenyl)-5-methyl-1,2,4-triazine-6-carbonyl]amino]butanoyl]amino]-10,13-dioxo-9,12-diazatricyclo[13.3.1.12,6]icosa-1(18),2(20),3,5,15(19),16-hexaene-8-carboxamide] are 0.017 µM and 0.27 µM.
As for `C[C@@H]1NC(=O)[C@@H](N(C)C(=O)[C@H](CCN)NC(=O)c2cnc(-c3ccc(C(C)(C)C)cc3)c(=O)n2C)c2ccc(OCCN)c(c2)-c2cc(ccc2OCCN)C[C@@H](C(=O)NCC#N)NC1=O` (racemic) [Compound 386, rac-(8S,11S,14S)-3,18-bis(2-aminoethoxy)-N-(cyanomethyl)-11-methyl-14-[methyl-[rac-(2S)-4-amino-2-[[5-(4-tert-butylphenyl)-1-methyl-6-oxo-pyrazine-2-carbonyl]amino]butanoyl]amino]-10,13-dioxo-9,12-diazatricyclo[13.3.1.12,6]icosa-1(18),2(20),3,5,15(19),16-hexaene-8-carboxamide], the values for the MIC in experiment [1] and in experiment [2] were 0.75 µM and 8 µM, respectively.

The record behind these values is patent US20260274892A1, “MACROCYCLIC BROAD SPECTRUM ANTIBIOTICS” (RQx Pharmaceuticals, Inc., priority 2017, published 2026).
